# Experimental data reported in US20250313574A1, “SIALIC ACID DERIVATIVES AND METHODS OF USING SAME” (EISAI R&D MANAGEMENT CO., LTD., priority 2022, published 2025).
# “And” between values parts separate entries of the source, which are not always exact repeats. Equal values may be shown once. Read-outs that look alike come from different tables or passages of the source.
# Key:
# [1] = target: Recombinant human CD33 protein (Homo sapiens (Human), UniProt P20138); assay: CD33 competitive binding assay for HTS drug screen (fluorescent multivalent sialic acid probe)
# Chain of Recombinant human CD33 protein (P20138 18-259): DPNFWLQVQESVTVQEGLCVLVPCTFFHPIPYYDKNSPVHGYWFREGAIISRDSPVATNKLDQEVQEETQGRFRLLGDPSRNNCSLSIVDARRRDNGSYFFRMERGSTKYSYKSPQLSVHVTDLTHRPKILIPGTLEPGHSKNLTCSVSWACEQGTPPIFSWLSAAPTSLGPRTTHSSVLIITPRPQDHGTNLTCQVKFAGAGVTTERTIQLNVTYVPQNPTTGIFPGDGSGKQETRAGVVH
# In short: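 Inhibition was read as reduced retention of a fluorescent multivalent sialic acid complex (final 5 μM neutravidin, 15 μM A-375, 5 μM biotin-4-FITC) on plate-immobilized human CD33. Compound was added first, the probe followed for 30 min at room temperature in PBS with 0.2% Tween-20 and 0.5% BSA, and FITC was measured after a wash.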
# [2] = target: recombinant human CD33 (Siglec-3, sialic acid binding Ig-like lectin 3) protein (Homo sapiens (Human), UniProt P20138); assay: Differential Scanning Fluorimetry (DSF, Protein Thermal Shift Assay); conditions: 50 μM of A-001; CD33 alone melts at approximately 55° C.
# Chain of recombinant human CD33 (Siglec-3, sialic acid binding Ig-like lectin 3) protein (P20138 18-259): as above
# Experimental: FIG. 1 depicts thermograms (A) and derivative curves (B) of His-CD33 (gray) and His-CD33 with A-001 (blue).
# Differential Scanning Fluorimetry (also known as DSF, Protein Thermal Shift Assay, Thermofluor Assay) was used to measure and compare the thermal melt or thermal denaturation temperature of recombinant human CD33 (Siglec-3, sialic acid binding Ig-like lectin 3) protein in the presence of 50 μM of A-001. In the absence of any compound, the CD33 protein has a thermal melt at approximately 55° C. under the method conditions described in this report.
# [3] = target: Recombinant Human Siglec-3/CD33 protein (His-CD33) (Homo sapiens (Human), UniProt P20138); assay: Differential scanning fluorimetry (DSF) thermal shift assay; type: binding
# Chain of Recombinant Human Siglec-3/CD33 protein (His-CD33) (P20138 18-259): as above
# [4] = rcm bond, toluene
structure (smiles),measurement,setting,value
CC(=O)N[C@H]1[C@H]([C@H](O)[C@H](O)CNC(=O)c2cc(C)c(O)c(C)c2)O[C@@](CCN2CCOC[C@@]23CCN(C(=O)OC(C)(C)C)C3)(C(=O)O)C[C@@H]1O [A-001],EC50,[1],15 nM
same,increase in thermal melt (dTm D) of CD33 protein,[2],12.2±0.7 °C
same,ΔTm D (° C.),"[3]; 50 μM compound, 0.5 μM CD33 protein, pH 7.4, individual determinations",11.9 °C and 12.9 °C
same,ΔTm at 50 µM,"[3]; 50 μM compound, 0.5 μM CD33 protein, pH 7.4, individual determinations, read-out: ΔTm D (° C.)",12.2 °C
same,ΔTm at 50 µM,"[3]; 50 μM compound, 0.5 μM CD33 protein, pH 7.4, read-out: Median ΔTm D (° C.)",12.2 ± 0.7 °C
same,DSF (dTmD),[3]; thermal melt shift of 0.5 μM CD33 protein with 50 μM compound,12.9
COC(=O)[C@]12CC=CCOC[C@H]3C[C@H](CN3C(=O)C3CCCOC3)OCCOc3c(C)cc(cc3C)C(=O)NC[C@@H](OC(C)=O)[C@@H](OC(C)=O)[C@H](O1)[C@H](NC(=O)OC(C)(C)C)[C@@H](OC(C)=O)C2 (some centres unmarked),"ring closure, isolated yield","[4]; from C=CCOC[C@H]1C[C@@H](OCCOc2c(C)cc(C(=O)NC[C@@H](OC(C)=O)[C@@H](OC(C)=O)[C@@H]3O[C@@](CC=C)(C(=O)OC)C[C@H](OC(C)=O)[C@H]3NC(=O)OC(C)(C)C)cc2C)CN1C(=O)C1CCCOC1, 25-membered ring, Hoveyda-Grubbs II/quinone, 1.03 mM, 90.0 °C, 24.0 h",64%
CC(=O)O[C@H]1[C@@H]2O[C@](C(=O)OCc3ccccc3)(CC=CCOC[C@@H](C)C(=O)NCCCOc3c(C)cc(cc3C)C(=O)NC[C@H]1OC(C)=O)C[C@H](OC(C)=O)[C@H]2NC(=O)OC(C)(C)C,"ring closure, isolated yield","[4]; from C=CCOC[C@@H](C)C(=O)NCCCOc1c(C)cc(C(=O)NC[C@@H](OC(C)=O)[C@@H](OC(C)=O)[C@@H]2O[C@@](CC=C)(C(=O)OCc3ccccc3)C[C@H](OC(C)=O)[C@H]2NC(=O)OC(C)(C)C)cc1C, 25-membered ring, Hoveyda-Grubbs II (10 mol%)/1,4-benzoquinone, 1.52 mM, 80.0 °C, 1.0 h",47%
COC(=O)[C@]12CC=CCCC[C@@H](NC(=O)C3CCCOC3)c3cccc(c3)COc3c(C)cc(cc3C)C(=O)NC[C@@H](OC(C)=O)[C@@H](OC(C)=O)[C@H](O1)[C@H](NC(=O)OC(C)(C)C)[C@@H](OC(C)=O)C2 (some centres unmarked),"ring closure, isolated yield","[4]; from C=CCCC[C@@H](NC(=O)C1CCCOC1)c1cccc(COc2c(C)cc(C(=O)NC[C@@H](OC(C)=O)[C@@H](OC(C)=O)[C@@H]3O[C@@](CC=C)(C(=O)OC)C[C@H](OC(C)=O)[C@H]3NC(=O)OC(C)(C)C)cc2C)c1, 24-membered ring, Hoveyda-Grubbs II/quinone, 1.03 mM, 90.0 °C, 24.0 h",71%
COC(=O)[C@]12CC=CCOC[C@@H](NC(=O)C3CCCOC3)COCCOc3c(C)cc(cc3C)C(=O)NC[C@@H](OC(C)=O)[C@@H](OC(C)=O)[C@H](O1)[C@H](NC(=O)OC(C)(C)C)[C@@H](OC(C)=O)C2 (some centres unmarked),"ring closure, isolated yield","[4]; from C=CCOC[C@H](COCCOc1c(C)cc(C(=O)NC[C@@H](OC(C)=O)[C@@H](OC(C)=O)[C@@H]2O[C@@](CC=C)(C(=O)OC)C[C@H](OC(C)=O)[C@H]2NC(=O)OC(C)(C)C)cc1C)NC(=O)C1CCCOC1, 24-membered ring, Hoveyda-Grubbs II/quinone, 1.05 mM, 80.0 °C, 3.0 h",60%
COC(=O)[C@]12CC=Cc3cccc(c3)[C@@H](NC(=O)C3CCCOC3)CCCCc3cc(cc(Cl)c3OC(C)=O)C(=O)NC[C@@H](OC(C)=O)[C@@H](OC(C)=O)[C@H](O1)[C@H](NC(=O)OC(C)(C)C)[C@@H](OC(C)=O)C2 (some centres unmarked),"ring closure, isolated yield","[4]; from C=CC[C@]1(C(=O)OC)C[C@H](OC(C)=O)[C@@H](NC(=O)OC(C)(C)C)[C@H]([C@H](OC(C)=O)[C@@H](CNC(=O)c2cc(Cl)c(OC(C)=O)c(CCCC[C@H](NC(=O)C3CCCOC3)c3cccc(C=C)c3)c2)OC(C)=O)O1, 22-membered ring, Hoveyda-Grubbs II/quinone, 1.3 mM, 88.0 °C, 0.5 h",57%
same,"ring closure, isolated yield","[4]; from C=CC[C@]1(C(=O)OC)C[C@H](OC(C)=O)[C@@H](NC(=O)OC(C)(C)C)[C@H]([C@H](OC(C)=O)[C@@H](CNC(=O)c2cc(Cl)c(OC(C)=O)c(CCCC[C@H](NC(=O)C3CCCOC3)c3cccc(C=C)c3)c2)OC(C)=O)O1, Hoveyda-Grubbs II/quinone, 1.3 mM, 88.0 °C, 0.5 h",16%
COC(=O)[C@]12CC=CCOC[C@@H](NC(=O)C3CCCOC3)COCCCOc3c(C)cc(cc3C)C(=O)NC[C@@H](OC(C)=O)[C@@H](OC(C)=O)[C@H](O1)[C@H](NC(=O)OC(C)(C)C)[C@@H](OC(C)=O)C2 (some centres unmarked),"ring closure, isolated yield","[4]; from C=CCOC[C@H](COCCCOc1c(C)cc(C(=O)NC[C@@H](OC(C)=O)[C@@H](OC(C)=O)[C@@H]2O[C@@](CC=C)(C(=O)OC)C[C@H](OC(C)=O)[C@H]2NC(=O)OC(C)(C)C)cc1C)NC(=O)C1CCCOC1, 25-membered ring, Hoveyda-Grubbs II/quinone, 1.04 mM, 90.0 °C, 24.0 h",76%
COC(=O)[C@]12CC=Cc3cccc(c3)[C@@H](NC(=O)C3CCCOC3)CCCCOc3c(C)cc(cc3C)C(=O)NC[C@@H](OC(C)=O)[C@@H](OC(C)=O)[C@H](O1)[C@H](NC(=O)OC(C)(C)C)[C@@H](OC(C)=O)C2 (some centres unmarked),"ring closure, isolated yield","[4]; from C=CC[C@]1(C(=O)OC)C[C@H](OC(C)=O)[C@@H](NC(=O)OC(C)(C)C)[C@H]([C@H](OC(C)=O)[C@@H](CNC(=O)c2cc(C)c(OCCCC[C@H](NC(=O)C3CCCOC3)c3cccc(C=C)c3)c(C)c2)OC(C)=O)O1, 24-membered ring, Hoveyda-Grubbs II/quinone, 1.02 mM, 80.0 °C, 1.0 h",29%
